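Each compound was tested at five concentrations against cells in 96-well plates for 48 hours. Here, GI50 denotes the concentration required for 50% inhibition of growth.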 Calls of active or inactive are those of the source. Rule as the data show it: active = GI50 up to about 1.1 µM and inactive = higher.

What all share (assay): NCI anticancer screen, dose series, 48 h
Assay [1] relates to LXFL 529.
In assay [2] the test system is HOP-18.
Assay [3] relates to MDA-MB-231.
The test system of assay [4] is T47D.
The subject of assay [5] is BT-549.
The test system of assay [6] is Hs-578T.

`Cc1ccc(NC(=O)CC/C(CC(=O)C(C)(C)C)=N/NC(=O)c2cc3ccccc3cc2O)cc1C`: the figures for the GI50 in assay [1] and in assay [2] were 35.2 µM (inactive) and 32.1 µM (inactive), respectively.
As for `COc1cccc(N2C(=O)CSC2c2c[nH]c3ccccc23)c1` (stereo unspecified), the GI50 in assay [3], in assay [4] and in assay [5] was > 100 µM (inactive) throughout.
In the case of `COc1ccc(C2=N/C(=C\c3ccccc3)C(=O)O2)cc1`, in assay [6], the GI50 is 40.8 µM (inactive).

(Values after ChEMBL document CHEMBL1201862, “PubChem BioAssay data set” (2004).)
